Measurements reported in paper PMC13022235 (Nature Communications, 2026).
Positions count from the first letter of the chain named. “Also recorded” adds a separate entry of the source.

Experiments:
[1] = system: chronic constriction injury (CCI) mice; experiment: CCI model, cold allodynia; assay type: in vivo, mouse; conditions: for reduction of cold allodynia vs vehicle: acetone
male C57BL/6 J mice = experiment: Conditioned place preference; assay type: in vivo, mouse
hGlyT2^W215F [2] = target: T1, hGlyT2^W215F (Homo sapiens, UniProt Q9Y345, W215F); assay type: cell-based
T1 sequence (Q9Y345 1-797 W215F): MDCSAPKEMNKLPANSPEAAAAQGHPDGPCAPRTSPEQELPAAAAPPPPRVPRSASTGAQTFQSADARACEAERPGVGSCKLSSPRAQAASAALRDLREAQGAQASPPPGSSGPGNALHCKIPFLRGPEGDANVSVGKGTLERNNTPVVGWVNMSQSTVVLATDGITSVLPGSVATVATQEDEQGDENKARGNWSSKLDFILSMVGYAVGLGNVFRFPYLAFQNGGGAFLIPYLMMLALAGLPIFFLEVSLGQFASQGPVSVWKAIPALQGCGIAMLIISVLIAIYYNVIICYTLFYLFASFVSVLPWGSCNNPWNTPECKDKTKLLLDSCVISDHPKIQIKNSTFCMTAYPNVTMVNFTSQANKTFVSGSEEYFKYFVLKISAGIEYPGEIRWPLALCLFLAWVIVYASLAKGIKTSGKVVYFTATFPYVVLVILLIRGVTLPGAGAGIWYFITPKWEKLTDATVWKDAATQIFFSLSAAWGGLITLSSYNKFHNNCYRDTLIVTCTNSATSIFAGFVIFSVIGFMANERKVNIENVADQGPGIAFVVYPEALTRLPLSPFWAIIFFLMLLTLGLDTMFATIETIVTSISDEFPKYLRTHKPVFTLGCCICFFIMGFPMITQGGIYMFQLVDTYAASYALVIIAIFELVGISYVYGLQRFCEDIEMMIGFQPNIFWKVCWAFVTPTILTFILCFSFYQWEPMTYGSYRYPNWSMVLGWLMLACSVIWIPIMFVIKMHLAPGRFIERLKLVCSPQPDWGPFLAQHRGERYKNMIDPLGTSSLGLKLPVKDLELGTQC

hGlyT2^D633E [3] = target: T2, hGlyT2^D633E (Homo sapiens, UniProt Q9Y345, D633E); assay type: cell-based; conditions: D633E mutation
T2 sequence (Q9Y345 1-797 D633E): T1 sequence (Q9Y345 1-797 W215F) with F215W, D633E

hGlyT2^WT [4] = target: T3, hGlyT2^WT (Homo sapiens, UniProt Q9Y345); experiment: Reversibility from inhibition; assay type: cell-based
T3 sequence (Q9Y345 1-797): T1 sequence (Q9Y345 1-797 W215F) with F215W

hGlyT2^W215F [5] = target: T1, hGlyT2^W215F; experiment: Reversibility from inhibition; assay type: cell-based
mice [6] = conditions: cited from earlier work
hGlyT1^WT = target: T4, hGlyT1^WT (Homo sapiens, UniProt P48067); experiment: Two-electrode voltage clamp, GlyT1 selectivity test in oocytes; assay type: cell-based; conditions: 10 µM
T4 sequence (P48067 1-706): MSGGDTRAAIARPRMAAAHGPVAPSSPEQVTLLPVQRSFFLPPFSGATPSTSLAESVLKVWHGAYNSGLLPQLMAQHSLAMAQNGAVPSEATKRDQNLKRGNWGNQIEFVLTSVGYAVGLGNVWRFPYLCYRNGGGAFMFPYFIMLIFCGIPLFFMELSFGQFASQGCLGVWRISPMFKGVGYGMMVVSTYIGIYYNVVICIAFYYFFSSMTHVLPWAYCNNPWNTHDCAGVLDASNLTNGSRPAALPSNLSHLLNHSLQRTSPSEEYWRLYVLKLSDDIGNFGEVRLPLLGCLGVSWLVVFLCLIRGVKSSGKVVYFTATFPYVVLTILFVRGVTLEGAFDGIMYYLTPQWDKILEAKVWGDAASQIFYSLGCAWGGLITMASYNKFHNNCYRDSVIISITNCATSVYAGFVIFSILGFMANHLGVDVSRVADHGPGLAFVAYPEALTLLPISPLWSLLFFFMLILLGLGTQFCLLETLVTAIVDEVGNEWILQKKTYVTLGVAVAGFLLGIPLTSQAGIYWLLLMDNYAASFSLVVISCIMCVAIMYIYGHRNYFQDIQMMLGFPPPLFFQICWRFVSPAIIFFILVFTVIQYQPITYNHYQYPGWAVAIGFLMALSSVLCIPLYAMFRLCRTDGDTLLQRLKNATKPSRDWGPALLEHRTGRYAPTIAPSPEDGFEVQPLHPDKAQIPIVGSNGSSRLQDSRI

hGlyT2^WT [7] = target: T3, hGlyT2^WT; assay type: cell-based; conditions: glycine dose-responses with RPI-GLYT2-82
hGlyT2^D633E [8] = target: T2, hGlyT2^D633E; experiment: Reversibility from inhibition; assay type: cell-based; conditions: GlyT2^D633E
[9] = PK Study 2: in-life plasma and CNS drug exposure after 50 mg/kg i.p.; assay type: in vivo, male C57BL/6 mice; conditions: 30 min
[10] = system: chronic constriction injury (CCI) mice; experiment: CCI model, mechanical allodynia; assay type: in vivo, mouse
[11] = system: partial sciatic nerve ligation (PSNL) mice; experiment: PSNL model, mechanical allodynia; assay type: in vivo, mouse; conditions: 50 mg/kg i.p.
naïve mice = experiment: Accelerating rotarod, motor coordination; assay type: in vivo, mouse
mice [12] = experiment: Side effect scoring; assay type: in vivo, mouse; conditions: 250 mg/kg i.p.
naïve, uninjured mice = experiment: Whole-body plethysmography; assay type: in vivo, mouse
hDAT = hDAT (Homo sapiens, UniProt Q01959); experiment: Cerep binding assay, displacement of 3H-BTCP; conditions: 10 μM
Chain of hDAT (Q01959 whole entry): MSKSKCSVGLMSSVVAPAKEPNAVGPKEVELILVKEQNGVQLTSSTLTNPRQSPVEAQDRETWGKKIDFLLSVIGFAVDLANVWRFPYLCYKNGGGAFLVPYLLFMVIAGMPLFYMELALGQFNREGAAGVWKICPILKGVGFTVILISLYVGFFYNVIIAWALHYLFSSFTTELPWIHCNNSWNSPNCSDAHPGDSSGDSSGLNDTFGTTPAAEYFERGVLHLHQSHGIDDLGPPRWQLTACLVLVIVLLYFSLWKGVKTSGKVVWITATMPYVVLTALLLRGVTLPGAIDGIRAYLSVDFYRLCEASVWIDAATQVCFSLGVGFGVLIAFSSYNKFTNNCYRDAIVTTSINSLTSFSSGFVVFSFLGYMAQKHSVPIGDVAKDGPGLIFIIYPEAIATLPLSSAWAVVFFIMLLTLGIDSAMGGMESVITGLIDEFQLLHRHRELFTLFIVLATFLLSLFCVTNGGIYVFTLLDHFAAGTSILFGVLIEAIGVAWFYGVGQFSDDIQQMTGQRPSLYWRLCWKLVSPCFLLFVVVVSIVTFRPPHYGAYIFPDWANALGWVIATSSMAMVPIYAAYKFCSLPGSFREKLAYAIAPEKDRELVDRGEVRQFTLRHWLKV

hNET = hNET (Homo sapiens, UniProt P23975); experiment: Cerep binding assay, displacement of 3H-nisoxetine; conditions: 10 μM
Chain of hNET (P23975 whole entry): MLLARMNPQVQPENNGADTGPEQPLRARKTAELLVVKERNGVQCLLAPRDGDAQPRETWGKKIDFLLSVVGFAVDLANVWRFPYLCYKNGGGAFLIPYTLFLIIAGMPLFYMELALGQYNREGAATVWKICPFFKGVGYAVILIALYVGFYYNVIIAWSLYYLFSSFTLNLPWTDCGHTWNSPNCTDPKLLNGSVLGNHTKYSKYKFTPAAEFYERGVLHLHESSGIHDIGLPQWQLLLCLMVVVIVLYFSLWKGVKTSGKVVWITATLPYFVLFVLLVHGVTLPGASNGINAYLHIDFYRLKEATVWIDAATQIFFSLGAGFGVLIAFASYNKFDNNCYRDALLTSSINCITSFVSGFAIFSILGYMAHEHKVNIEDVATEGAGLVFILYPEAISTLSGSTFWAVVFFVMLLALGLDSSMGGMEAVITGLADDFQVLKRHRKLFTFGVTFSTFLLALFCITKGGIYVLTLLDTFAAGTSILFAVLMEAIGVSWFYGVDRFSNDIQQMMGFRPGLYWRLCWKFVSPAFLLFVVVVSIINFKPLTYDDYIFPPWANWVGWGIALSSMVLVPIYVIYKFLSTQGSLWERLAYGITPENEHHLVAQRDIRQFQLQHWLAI

GlyT2 = conditions: read-out: IC50 for GlyT2; cited from earlier work

SMILES: NCC1(CC(=O)O)CCCCC1 [Gabapentin, reference compound]
- reduction of cold allodynia vs vehicle ([1]; gabapentin 100 mg/kg): significant at 1-6 hours

SMILES: CN1CC[C@]23c4c5ccc(O)c4O[C@H]2[C@@H](O)C=C[C@H]3[C@H]1C5 [Morphine, reference compound]
- conditioned place preference (male C57BL/6 J mice; morphine 10 mg/kg i.p.): significant increase in preference for the paired chamber

SMILES: COc1cc(C(=O)NCC2(N(C)C)CCCC2)cc(OC)c1OCc1ccccc1 [ORG25543, 4-(benzyloxy)-N-{[1-(dimethylamino)cyclopentyl]methyl}−3,5-dimethoxybenzamide]
- decrease in potency of inhibition vs WT (hGlyT2^W215F [2]; W215F mutation): ~ three-fold
- decrease in potency of inhibition vs WT (hGlyT2^D633E [3]): ~ 14 fold
- reversibility of inhibition (hGlyT2^WT [4]; hGlyT2, washout 30 min): prolonged inhibitory effects with minimal restoration of glycine-induced currents
- currents restored, % of pre-inhibitor levels (hGlyT2^WT [4]; hGlyT2^WT, 30 minutes washout): 12.5%
- effect of mutation on washout (hGlyT2^W215F [5]; hGlyT2^W215F): significantly increased the rate of ORG25543 washout
- mechanical allodynia (mice [6]; 50 mg/kg): reversed mechanical allodynia
- side effects (mice [6]; 50 mg/kg): near-complete loss of rotarod performance, seizures and in one case, lethality
- effects on inflammatory and acute nociceptive pain thresholds (mice [6]): no effects on inflammatory and acute nociceptive pain thresholds

SMILES: CN(C)C1(CNC(=O)c2ccc3c(c2)CCN3C(=O)c2ccccc2)CCOCC1 [RPI-GLYT2-82, 1-benzoyl-N-((4-(dimethylamino)tetrahydro-2H-pyran-4-yl)methyl)indoline-5-carboxamide]
- IC50 (hGlyT2^W215F [2]): > 30000 nM
- decrease in potency of inhibition vs WT (hGlyT2^D633E [3]): > 18 fold
- effect on GlyT1 (hGlyT1^WT): minimal effect on GlyT1
- mechanism of inhibition (hGlyT2^WT [7]): non-competitive inhibitor
- washout (hGlyT2^W215F [5]; GlyT2^W215F): almost immediate
- washout (hGlyT2^D633E [8]): almost immediate
- Cu,b, calculated unbound concentration in brain [9]: 597.89 nM
- efficacy against mechanical allodynia vs vehicle ([10]; 50 mg/kg i.p.): significant at 2 and 3 hours post-injection compared to vehicle
- efficacy against mechanical allodynia vs vehicle ([10]; 100 mg/kg i.p.): showed a similar trend at 2 and 3 hours
- anti-allodynia, time of maximum efficacy ([10]; von Frey, 50 and 100 mg/kg i.p.): maximum efficacy between 90 min and 3 hours post-administration
- time of peak anti-allodynia effects, cold allodynia ([1]; 50 and 100 mg/kg i.p.): ≤ 2 h
- reduction of cold allodynia vs vehicle ([1]; 50 and 100 mg/kg i.p.): significantly reduced cold allodynia between 0.5 and 6-hours postinjection compared to vehicle
- reduction of mechanical allodynia vs vehicle [11]: significant at 90 minutes and 2-hours post-injection compared to vehicle
- neuromotor effects / muscle weakness (naïve mice; 50 mg/kg, rotarod, grip strength, sedation): No deficits were observed; also recorded: not associated with adverse neuromotor effects or muscle weakness
- initial reduction in baseline rotarod performance (naïve mice; 250 mg/kg i.p.): 61%
- sedation (mice [12]): transient sedation, which was most apparent in the first 15–30 minutes and fully recovered by 90 minutes
- respiration (naïve, uninjured mice; 50 mg/kg): did not change respiration frequency, minute volume (MVb), or tidal volume (TVb)
- respiration (naïve, uninjured mice; 250 mg/kg i.p.): transient changes in respiratory frequency and MVb in the first hour, and TVb in the first 30 min
- conditioned place preference (male C57BL/6 J mice; 50 and 150 mg/kg i.p.): no significant preference
- displacement of 3H-BTCP from hDAT / inhibition (hDAT): ~ 20%
- displacement of 3H-nisoxetine from hNET / inhibition (hNET): < 5%

SMILES: CCCCCCCC/C=C\CCCCCCCC(=O)N[C@H](CCCCN)C(=O)O [oleoyl-D-lysine]
- effects on inflammatory and acute nociceptive pain thresholds (mice [6]): no effects on inflammatory and acute nociceptive pain thresholds

SMILES: CCCCOc1c(OC)cc(C(=O)NCC2(N(C)C)CCOCC2)cc1OC [opiranserin]
- IC50 (GlyT2): 860 nM
